Test [1] relates to c-myc in Human AML MV4-11 cells. The test can be described thus: Inhibition of cMYC expression (mRNA, real-time PCR) in MV4-11 cells. The format is cell-based. The settings on record: 3 h treatment, cMYC mRNA by real-time PCR. Summed up:
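MV4-11 cells in IMDM with 10% FBS were treated with increasing compound concentrations (DMSO 0.1%) for 3 h at 37 °C, in triplicate. Isolated mRNA was quantified by one-step TaqMan RT-qPCR, cMYC Ct normalized to cyclophilin, and fold expression given relative to DMSO control.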
Background: Real-time PCR tracks product formation cycle by cycle.

For test [2], the system named is Human AML MV-4-11 cells. The test is described as follows: Inhibition of cell proliferation in MV4-11 cells (CellTiter Aqueous One). The class given is cell-based. The settings on record: MV4-11, 72 h. The method in brief:
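MV4-11 cells, 5×10^4 per well in IMDM with 10% FBS, were exposed to increasing compound concentrations or 0.1% DMSO for 72 h at 37 °C in triplicate. Viability was read by MTS (CellTiter Aqueous One) absorbance at 490 nm after 3-4 h. IC50 was derived from background-corrected signal relative to DMSO.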

The subject of test [3] is hIL-6 mRNA. The test can be described thus: Inhibition of hIL-6 mRNA transcription in LPS-stimulated U937 macrophages. To be noted: Homo sapiens, U-937, PMA-differentiated U937 cells, 1 h pretreatment, LPS 3 h, read-out: IL-6 activity. The class given is cell-based, Human. Summed up: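 PMA-differentiated U937 macrophages (60 ng/mL PMA, 3 days) pretreated 1 h with compound in 0.1% DMSO, then stimulated with 1 ug/mL E. coli LPS for 3 h at 37° C. IL-6 mRNA quantified by one-step TaqMan qRT-PCR, normalized to cyclophilin; fold expression relative to control, triplicate wells.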

The subject of test [4] is hApoA-1 mRNA. The test is described as follows: Up-regulation of hApoA-1 mRNA transcription in Huh7 cells. The format is cell-based. To be noted: Homo sapiens, Huh-7, EC170 of hApoA-1 mRNA up-regulation, 48 h, read-out: ApoA-1 activity. How it is done: Huh7 cells (2.5×10^5 per well) were plated in a 96-well plate using 100 μL DMEM per well, (Gibco DMEM supplemented with penicillin/streptomycin and 10% FBS), 72 h before the addition of the compound. The cells are treated with increasing concentrations of the compound or DMSO (0.1%), and incubated at 37° C., 5% CO2 for 48 h. Spent media was removed from the Huh-7 cells and placed on ice for immediate use with the “LDH cytotoxicity assay Kit II” from Abcam. The cells remaining in the plate were rinsed with 100 μL PBS. Cells were harvested using the mRNA Catcher PLUS kit according to manufacturer's instructions. The eluted mRNA was then used in a one-step quantitative real-time PCR reaction, using components of the RNA UltraSense™ One-Step Kit (Life Technologies) together with Applied Biosystems TaqMan® primer-probes for hApoA-1 and Cyclophilin. Real-time PCR plates were run on a ViiA™7 real time PCR machine (Applied Biosystems), data was analyzed, normalizing the Ct values for hApoA-1 to an internal control, prior to determining the fold induction of each unknown sample, relative to the control.

Test [5] addresses Brd4 bromodomain 1 (BRD4(1)) (Homo sapiens, UniProt O60885). The test can be described thus: Inhibition of tetra-acetylated histone H4 binding to Brd4 bromodomain 1, measured by FRET (HTRF). The settings on record: 2 h at room temperature. Also on record: made in house; host or cells: E. coli BL21(DE3). Summed up: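 Inhibition was read as a drop in 665 nm relative to 620 nm HTRF signal after 2 h at room temperature, with IC50 from dose-response curves in duplicate wells. Reactions held 200 nM E. coli-expressed His-tagged bromodomain and 25-50 nM biotinylated tetra-acetylated histone H4 peptide. Buffer was 30 mM HEPES pH 7.4 with KF, CHAPS, BSA and 0.2% DMSO.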
(TR-FRET usually uses a lanthanide donor and a delayed reading to cut background.)

IC50 and EC170 data for four molecules are collected here from US9999616B2 (ZENITH EPIGENETICS LTD., priority 2013, dated 2018).

The structures appear in SMILES notation.

On to `Cc1noc(C)c1-c1cc(-c2c(C)noc2C)c2nc[nH]c2c1` [Example Compound 1, 4,4′-(1H-benzo[d]imidazole-4,6-diyl)bis(3,5-dimethylisoxazole)], for which the IC50 was 300 to 3000 nM in test [1], 300 to 3000 nM in test [2], at most 300 nM in test [3] and at most 300 nM in test [5]. For the same molecule, in test [4], the EC170 lay within 0.3 to 3 µM.
For the molecule `Cc1nc2c(-c3c(C)noc3C)cc(-c3c(C)noc3C)cc2[nH]1` [Example Compound 6, 4,4′-(2-methyl-1H-benzo[d]imidazole-4,6-diyl)bis(3,5-dimethylisoxazole)], the IC50 was 300 to 3000 nM in test [1], 300 to 3000 nM in test [2], 300 to 3000 nM in test [3] and at most 300 nM in test [5].
For the molecule `Cc1nc2c(-c3cccnc3C)cc(-c3c(C)noc3C)cc2[nH]1` [Example Compound 41, 3,5-dimethyl-4-(2-methyl-4-(2-methylpyridin-3-yl)-1H-benzo[d]imidazol-6-yl)isoxazole], the IC50 in test [1] was 300 to 3000 nM; in test [2] it was 300 to 3000 nM; in test [3], at most 300 nM; in test [5] it was at most 300 nM. Moreover, in test [4], the EC170 is at most 0.3 µM.
Take `Cc1nc2c(-c3c(C)nn(C)c3C)cc(-c3c(C)noc3C)cc2[nH]1` [Example Compound 49, 3,5-dimethyl-4-(2-methyl-4-(1,3,5-trimethyl-1H-pyrazol-4-yl)-1H-benzo[d]imidazol-6-yl)isoxazole]: the IC50 in test [1] was at most 300 nM; in test [2] it was 300 to 3000 nM; in test [3] it was at most 300 nM; in test [5], at most 300 nM. Besides, in test [4], the EC170 was at most 0.3 µM.
